Measurements published in patent US20040248769A1, “Enzyme inhibitors for inactivating allergens” (priority 2001, published 2004).
pKi: −log10 of the molar value. Each block holds one molecule with its values, some of them ahead of it. *1 amine or outer side, *2 acyl side, *3 side chain or, on linkers, in order; H or OH if unused. Where a SMILES comes first, the peptide text is derived from it. [ ]: non-standard residue; d: D form. The star is where a group is joined. AMC = Cc1cc(=O)oc2cc(N*)ccc12; pGlu = O=C1CC[C@@H](C(=O)O)N1; Suc = O=C(CCC(=O)[*:2])[*:1]; Bz = O=C(c1ccccc1)*; CH2Cl = ClC*

Columns and labels:
[1] = test system: Cat1 S3 fur extract proteolytic activity; experiment: Inhibition of the proteolytic activity in animal fur by proteinase inhibitors; assay type: biochemical, cat; settings: Cat1 S3, 10 μM inhibitor, substrate 1 Z-Gly-Gly-Arg-NHMec
Method: (§1) […] The assay was begun with substrate and sample and a continuous rate of product formation (nM/min) was measured (v0) for 15 min. The inhibitor was added to a final concentration of 10 μM in negligible volume from stock solution in dimethyl sulfoxide. The assay was continued for a further 15 min.
(§2) Under these conditions reversible inhibition can be measured as the new steady state (v1) with percentage inhibition being 1−(v1/v0)×100. Irreversible inhibition is measured as a second order rate constant and is time dependent but as long as the inhibitor is present in molar excess should always lead eventually to total inhibition. No distinction was made and inhibition is presented as a percentage of full activity. See results table 4.

[2] = test system: G.pig2 S1 fur extract proteolytic activity; experiment: as above; assay type: biochemical, guinea pig; settings: G.pig2 S1, 10 μM inhibitor, substrate 2 Z-Phe-Arg-NHMec
Method: as §1, §2

[3] = test system: Horse1 S1 mane extract proteolytic activity; experiment: as above; assay type: biochemical, horse; settings: Horse1 S1, 10 μM inhibitor, substrate 2 Z-Phe-Arg-NHMec
Method: as §1, §2

[4] = test system: Horse1 S2 fur extract proteolytic activity; experiment: as above; assay type: biochemical, horse; settings: Horse1 S2, 10 μM inhibitor, substrate 2 Z-Phe-Arg-NHMec
Method: as §1, §2

[5] = test system: Dog2 S1 fur extract proteolytic activity; experiment: as above; assay type: biochemical, dog; settings: Dog2 S1, 10 μM inhibitor, substrate 2 Z-Phe-Arg-NHMec
Method: as §1, §2

[6] = test system: Cat1 S3 fur extract proteolytic activity; experiment: Determination of Ki for the inhibition of Cat1 S3 by leupeptin; assay type: biochemical, cat; design: V1: unit not given beside the values
Method: The assays were carried out as described above, using 5 μM Z-Gly-Gly-Arg-NHMec as substrate in assay buffer. The assay was begun with substrate and sample and a continuous rate of product formation (nM/min) was measured (v0) for 15 min. […] The assay was continued for a further 15 min.
as §2

[7] = test system: Cat1 S3 fur extract proteolytic activity; experiment: Proteolytic activity of fur extract against NHMec substrates; assay type: biochemical, cat; settings: sample Cat1 S3, 5 μM substrate, 37° C., pH 7.5
Method: (§3) A clean pet brush was used to brush three common English domestic cats. Fur from guinea pigs, rabbit, dogs and horse was collected in the same way. A different brush was used for each species and between brushings these were cleaned thoroughly in a denaturing detergent solution (Fairy® detergent) and then ethanol. The brushings were transferred to a sterile universal container and extracted by shaking in an extraction buffer, 50 mM Tris.HCl, 5 mM CaCl2, pH 7.5 (0.1 g/ml). The solution was recovered by centrifugation and stored at −20° C. in aliquots. Saliva was collected from a mastiff-type dog and stored frozen in aliquots until assayed. Sample aliquots were assayed for proteolytic activity using fluorometric blocked peptidylaminomethylcoumarylamide substrates in the cuvette of a Perkin Elmer fluorimeter at 37° C. The fluorimeter was standardised with a known concentration of methylcoumarin, and the assays were designed so that no more than 10% substrate hydrolysis occurred.
(§4) Assays were performed in assay buffer; 50 mM Tris.HCl, 5 mM CaCl2, 0.1% CHAPS, pH 7.5. Data were collected in real-time on a personal computer using the Flusys software package.
(§5) In the first series of experiments the sample (12 μl) was assayed against a range of serine and cysteine proteinase aminomethylcoumarylamide (NHMec) substrates (obtained commercially from Bachem) under standard conditions of 5 μM substrate concentration (from a 100-fold stock solution in dimethyl sulfoxide) to give a final volume of 120 μl. After addition of substrate the rate without sample was determined (which in all cases was zero), after which the sample was applied and the progress of the reaction was followed for a further 15 min. The slope obtained (fluorescence vs time) was analysed by linear regression and converted to rate of product formation (nM/min) see results table 2.

[8] = test system: Cat1 S1 fur extract proteolytic activity; experiment: as above; assay type: biochemical, cat; settings: sample Cat1 S1, 5 μM substrate, 37° C., pH 7.5
Method: as §3, §4, §5

[9] = test system: Cat2 S1 fur extract proteolytic activity; experiment: as above; assay type: biochemical, cat; settings: sample Cat2 S1, 5 μM substrate, 37° C., pH 7.5
Method: as §3, §4, §5

% Inhibition [1]: 20.4%
v1 (rate after inhibitor) [1]: 2.005 nM/min
Molecule: CC(C)C[C@H](NC(=O)[C@H]1O[C@@H]1C(=O)O)C(=O)NCCCCN=C(N)N (relative stereo) [E64, L-trans epoxysuccinyl-leucylamido-4-guanidino-butane]

% Inhibition [1]: 100%
v1 (rate after inhibitor) [1]: 0.002 nM/min
% Inhibition [2]: 94.8%
v1 (rate after inhibitor) [2]: 0.964 nM/min
% Inhibition [3]: 100%
v1 (rate after inhibitor) [3]: 0 nM/min
% Inhibition [4]: 100%
v1 (rate after inhibitor) [4]: 0 nM/min
% Inhibition [5]: 71.2%
v1 (rate after inhibitor) [5]: 0.184 nM/min
Molecule: N=C(N)SCCCOc1oc(=O)c2cc(N)ccc2c1Cl [ACITIC, 7-amino-4-chloro-3-(-3-isothiureido-propoxy) isocoumarin]

% Inhibition [1]: 89.6%
v1 (rate after inhibitor) [1]: 0.292 nM/min
Molecule: Aprotinin

% Inhibition [1]: 98.7%
v1 (rate after inhibitor) [1]: 0.143 nM/min
Molecule: NC(N)=NCCC[C@H](NC(=O)CNC(=O)[C@@H](N)CCC(=O)O)C(=O)CCl [H-Glu-Gly-Arg-chloromethane] (H-Glu-Gly-Arg-CH2Cl)

Second part, the molecule before the results:

Molecule: CC(=O)N[C@@H](CC(C)C)C(=O)N[C@@H](CC(C)C)C(=O)N[C@H](C=O)CCCNC(=N)N [Leupeptin, acetyl-Leu-Leu-Arg-CHO]
% Inhibition [1]: 100%
v1 (rate after inhibitor) [1]: 0 nM/min
% Inhibition ([6]; Cat1 S3, [I] 0.5 nM): 25.0%
V1 ([6]; Cat1 S3, [I] 0.5 nM): 6.0
% Inhibition ([6]; Cat1 S3, [I] 1.0 nM): 24.3%
V1 ([6]; Cat1 S3, [I] 1.0 nM): 5.6
% Inhibition ([6]; Cat1 S3, [I] 5.0 nM): 37.9%
V1 ([6]; Cat1 S3, [I] 5.0 nM): 4.9
% Inhibition ([6]; Cat1 S3, [I] 10.0 nM): 53.2%
V1 ([6]; Cat1 S3, [I] 10.0 nM): 4.4
% Inhibition ([6]; Cat1 S3, [I] 50.0 nM): 68.7%
V1 ([6]; Cat1 S3, [I] 50.0 nM): 2.6
% Inhibition ([6]; Cat1 S3, [I] 100.0 nM): 78.0%
V1 ([6]; Cat1 S3, [I] 100.0 nM): 1.8
pKi ([6]; found using the Enzfitter software package, read-out: Kl for the inhibition of Cat1 S3): 8.58

Molecule: Cc1cc(=O)oc2cc(NC(=O)[C@H](CCCN=C(N)N)NC(=O)[C@@H](NC(=O)[C@H](Cc3ccccc3)NC(=O)c3ccccc3)C(C)C)ccc12 [Bz-Phe-Val-Arg-NHMec] (Bz-Phe-Val-Arg-{AMC})
Rate [7]: 32.1 nM/min

Molecule: Cc1cc(=O)oc2cc(NC(=O)[C@H](CCCN=C(N)N)NC(=O)[C@H](CCCCN)NC(=O)[C@@H](NC(=O)[C@H](CCCN=C(N)N)NC(=O)[C@@H]3CCC(=O)N3)[C@@H](C)O)ccc12 [Pyr-Arg-Thr-Lys-Arg-NHMec] ([pGlu]RTKR-{AMC})
Rate [8]: 0.58 nM/min
Rate [9]: 0.33 nM/min

Molecule: Cc1cc(=O)oc2cc(NC(=O)[C@@H](NC(=O)[C@@H]3CCCN3C(=O)[C@H](C)NC(=O)[C@H](C)NC(=O)CCC(=O)O)C(C)C)ccc12 [Suc-Ala-Ala-Pro-Val-NHMec] (Suc-AAPV-{AMC})
Rate [8]: No activity
Rate [9]: No activity
